These results are taken from patent EP3884941A1, “INFLAMMASOME INHIBITORS AND USE THEREOF” (CENTRO DE INVESTIGACION PRINCIPE FELIPE, priority 2020, dated 2021).

One may read the IC50 as the concentration needed to halve the response being measured.

Test [1] addresses T1, ASC-mediated PC1 activation (Homo sapiens, UniProt P29466).
T1 construct: His; made in house; host or cells: PC1: Sf9 insect cells (baculovirus)
T1 sequence (P29466 1-404): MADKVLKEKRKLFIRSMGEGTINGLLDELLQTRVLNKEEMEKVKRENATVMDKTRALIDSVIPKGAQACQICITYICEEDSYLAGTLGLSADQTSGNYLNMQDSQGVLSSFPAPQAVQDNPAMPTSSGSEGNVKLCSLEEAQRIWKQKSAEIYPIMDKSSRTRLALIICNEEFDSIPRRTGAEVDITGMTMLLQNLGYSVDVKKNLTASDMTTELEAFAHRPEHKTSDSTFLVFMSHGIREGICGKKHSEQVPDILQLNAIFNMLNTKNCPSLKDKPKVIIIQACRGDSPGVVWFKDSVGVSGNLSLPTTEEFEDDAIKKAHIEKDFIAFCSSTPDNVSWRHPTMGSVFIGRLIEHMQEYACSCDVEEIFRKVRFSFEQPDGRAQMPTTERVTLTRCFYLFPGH
Put plainly: ASC-mediated PC1 reconstitution in vitro assay (primary screening). It is filed as biochemical. The settings on record: PC1 50 nM, ASC 300 nM, substrate Ac-WEHD-AFC; read-out: IC50. The protocol:
Recombinant PC1 (50 nM) was preincubated with the indicated concentrations of compounds for 20 min at RT in Assay Buffer (20 mM HEPES pH 7.5, 10 mM KCI, 1.5 mM MgCl2, 1mM EDTA, 1 mM EGTA, 1 mM DTT). Then 300 nM of ASC were added and incubated for another 10 min period. Caspase-1 activation was measured using fluorogenic substrate Ac-WEHD-AFC (80 µM; Enzo Life Sciences) by continuously monitoring the release of the AFC (7-Amino-4-trifluoromethylcoumarin) product in a Wallac Victor workstation. The compounds were initially tested at 20 µM with 1% of DMSO. Data are reported as the percentage of inhibition compared with the absence of the compound.
The materials and methods employed in these experiments are now described.

The test system of test [2] is NLRP3 inflammasome. Put plainly: inflammasome activation cellular assay, LPS plus ATP, THP-1 cells. To be noted: THP-1, LPS + ATP; pyroptosis / cell viability; MM01 1, 2.5 or 5 µM, VX-765 5 µM. In kind it is cell-based, human. The procedure:
The MM01 compound was evaluated in the THP-1, or PMA-differentiated THP-1 cells (50 nM PMA for 24h) stimulated with lipopolysaccharide (LPS) plus adenosine triphosphate (ATP) to stimulate ASC-dependent inflammasomes NLRP3. Briefly, 1x10^6 cells were seeded in 6-well plates in 1 mL RPMI media that contained 1% FBS. Cells were either mock-treated or primed with compounds at the indicated concentrations for 30 min, followed by treatment with 100 ng/mL LPS (Sigma) and 2.5 mM ATP (Sigma) for 6 h at 37°C. In the case of nigericin stimulation, cells were primed with LPS for 3h, and then 10 µM nigericin (Sigma) was added for 30 min. Supernatants were harvested and clarified by centrifugation at 1500 rpm at RT, and a cytokine analysis was performed. Both IL-1β secretion and the release of IL-18were monitored by an ELISA assay (BD OptEIA™ Human IL-1β ELISA Kit and Human IL-18 Module Set eBioscience) following the manufacturer's instructions. Cell viability was analyzed in parallel by evaluating the release of lactate dehydrogenase (LDH) according to a commercial kit (CytoTox-ONE™ Homogeneous Membrane Integrity Assay; Promega). The release of LDH was calculated using the formula: the release of LDH (%) = 100x (Abs490 treated -Abs490 untreated cells)/ Abs490 untreated cells lysed with Triton 9% (maximum release of LDH).
The supernatants of the treated cells were precipitated by the chloroform-methanol method. Pellets were obtained by lysing cells in 25 mM of Tris-HCI pH 7.4, 1 mM EDTA, 1 mM EGTA and 1% SDS, plus protease and phosphatase inhibitors. The protein concentration was determined by the BCA protein assay. Samples were separated in a 14% SDS-PAGE gel, transferred to a nitrocellulose membrane and blocked with 5% skimmed milk for 1 h. Then the membrane was incubated overnight with primary antibodies: α-casp1 (1:1000; Cell Signaling 2225), α-IL-1β (1:1000; Acris R1130P), α-NLRP3 (1:1000; Cell Signaling 15101), α-tubulin (1:3000; Abcam ab6160) at 4°C. Membranes were washed and probed with the appropriate secondary antibody conjugated with peroxidase for enhanced chemiluminescence detection (Amersham Pharmacia Biotech).

Test [3] has as its system ASC specks in THP1-ASC-GFP cells. Briefly: ASC speck assay. In kind it is cell-based, human. The settings on record: THP-1 ASC GFP, LPS 100 ng/mL + nigericin 10 µM; MM01 10 µM, VX-765 5 µM. The procedure: THP1-ASC-GFP cells were seeded at 1×10^6/ml the day prior to use in experiments on 35 mm glass-bottom culture dishes. The following day medium was replaced containing the indicated inhibitors or vehicle for 30 min. Cells were then primed with 100 ng/ml LPS for 3h and stimulated with 10 µM nigericin for 30 min. Samples were fixed in 4% paraformaldehyde (PFA) for 10 min at RT and washed several times. Coverslips were prepared in mounting medium plus DAPI and analyzed in a Leica SP8 confocal microscope.

Test [4] has as its system NLRP3 inflammasome. Put plainly: human PBMCs cellular assay, LPS plus ATP. To be noted: human PBMCs, LPS and ATP, VX-765 5 µM. In kind it is cell-based. The procedure: Human peripheral blood mononuclear cells (PBMCs) are lymphocytes and monocytes. PBMCs were separated from the whole blood by a density gradient centrifugation method using Ficoll Histopaque. Purified PBMCs were plated in 24-well plates at 5000000 cells/well in free-serum RPMI medium. Cells were primed for 3 h with 10 ng/ml pure LPS followed by 4 h with compounds and 5 mM ATP. Supernatants were harvested and clarified by centrifugation at 1500 rpm at RT and cytokine and caspase-1 activation analysis was performed as previously described.

Another test has as its target T2, Recombinant caspase-1 (Homo sapiens, UniProt P29466).
T2 sequence (P29466 120-297 limits assumed): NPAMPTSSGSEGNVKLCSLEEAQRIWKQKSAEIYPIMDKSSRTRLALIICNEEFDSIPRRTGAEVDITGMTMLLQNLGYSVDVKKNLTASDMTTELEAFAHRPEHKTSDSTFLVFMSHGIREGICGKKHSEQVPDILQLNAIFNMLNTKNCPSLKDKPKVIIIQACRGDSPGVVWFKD
T2 sequence (P29466 317-404 limits assumed): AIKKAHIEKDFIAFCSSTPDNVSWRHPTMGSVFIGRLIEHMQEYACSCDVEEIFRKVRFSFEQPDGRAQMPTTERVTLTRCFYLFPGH
Put plainly: caspase-1 in vitro activation assay (secondary screening). To be noted: preactivated recombinant caspase-1. In kind it is biochemical. The procedure:
Recombinant caspase-1 (50 nM) was incubated with the indicated concentrations of compounds for 20 min at RT in Assay Buffer. Then fluorogenic substrate Ac-WEHD-AFC (80 µM) was added, and activity was monitored in a Wallac Victor workstation. Data are reported as the percentage of inhibition compared with the absence of the inhibitor.

“Also recorded” adds a separate entry of the source. Peptide text beside a SMILES is read from it. * marks the point of attachment. Cbz = O=C(OCc1ccccc1)*; CH2F = FC*

`CCCCN1C(=O)/C(=C2\SC(=S)N(Cc3ccco3)C2=O)c2cc(Br)ccc21`: in test [1], the IC50 is 300 ± 100 nM.

Regarding `COCCN1C(=O)/C(=C2/C(=O)Nc3ccc(Br)cc32)SC1=S`, the IC50 in test [1] worked out at 1500 ± 800 nM. `CCO[C@@H]1OC(=O)C[C@@H]1NC(=O)[C@@H]1CCCN1C(=O)[C@@H](NC(=O)c1ccc(N)c(Cl)c1)C(C)(C)C` [VX-765, reference compound]: the LDH release result in the test on NLRP3 inflammasome [2] is given as “does not decrease; also recorded: no recovery of cell viability”. In addition, the ASC speck formation entry in test [3] is listed as “not inhibited”. Moreover, in the test on NLRP3 inflammasome [4] (LDH release), the inflammatory cell death result is “did not protect”. Also, in the test with NLRP3 inflammasome [4], the cytokine release entry is given as “able to inhibit”. As to `CC(NC(=O)C(NC(=O)OCc1ccccc1)C(C)C)C(=O)NC(CC(=O)O)C(=O)CF` (stereo not drawn) [zVAD, reference compound] (Cbz-Val-Ala-Asp-CH2F; configuration not given here), on Recombinant caspase-1, the caspase-1 activity result is listed as “inhibits”.
